Measurements published in PMC8953385, “2-Styrylchromones: Cytotoxicity and Modulation of Human Neutrophils’ Oxidative Burst” (Pharmaceuticals, 2022).

Assays:
[1] = tested on: human neutrophils’ oxidative burst; experiment: Neutrophils’ oxidative burst, PMA stimulation, luminol chemiluminescence; format: cell-based; conditions: for inhibition at 75 µM: 75.00 µM (highest tested concentration); for inhibition at 25 µM: 25.00 µM (highest tested concentration); for IC50: PMA 160.00 nM, luminol 500.00 μM, mean ± SEM, read-out: IC50, inhibition of human neutrophils’ oxidative burst; for inhibition at 50 µM: 50.00 µM (highest tested concentration); for Times less active than C8 (oxidative burst): comparison of IC50 values with C8
Source text: (§1) Following the Declaration of Helsinki and the approval of patient-related procedures and protocols by the Ethics Committee of Centro Hospitalar do Porto, Portugal, venous blood was collected from healthy human blood donors, after informed consent. The blood was stored into K3EDTA vacuum tubes after antecubital venipuncture of the donors. In order to obtain the isolated neutrophils, the density gradient centrifugation method was applied, as previously reported, with modifications. In brief, in a 15 mL polypropylene tube, 3 mL of histopaque 1119 were added followed by 3 mL of histopaque 1077 and finally, 4.5 mL of the collected blood were slowly added. Each tube was centrifuged at 900× g at 20 °C for 30 min, with a medium acceleration and deceleration speed. Following centrifugation, the neutrophils’ portion was harvested, and PBS was added to double the volume. The neutrophils’ suspension was then centrifuged at 850× g at 4 °C for 5 min, using a maximum acceleration and deceleration speed. The supernatant was discarded, and the neutrophils’ pellet was resuspended in PBS and afterward milli-Q water was added to lyse the residual erythrocytes. The tube was gently homogenized and after a few minutes, 3% NaCl was added to restore isotony, and then centrifuged again at 850× g at 4 °C for 5 min, using a maximum acceleration and deceleration speed. The supernatant was discarded, and a neutrophils’ pellet was obtained. After isolation, the neutrophils’ pellet was resuspended in the incubation media, tris-glucose buffer (25 mM Trizma® base, 5.5 mM D-glucose, 140 mM NaCl, 1.26 mM CaCl2, 0.81 mM MgSO4, 5.37 mM KCl, pH = 7.4). Neutrophils’ suspension was kept on ice, under soft shaking, until use. The trypan blue exclusion method was used to determine cells’ yield and viability.
The effect of 2-SC on the modulation of neutrophils’ oxidative burst was assessed after the stimulation of these cells with PMA by monitoring the oxidation of chemiluminescent probe, luminol, by the generated reactive species (Figure S2), according to a previously described methodology. Briefly, neutrophils (1 × 10^6 cells/mL) were pre-incubated with luminol (500.00 μM), and 2-SC (0.00–100.00 μM) or DMSO, at the final concentrations indicated. After this pre-incubation, at 37 °C for 5 min, PMA (160.00 nM) was added, and in turn, neutrophils’ stimulation was initiated. Kinetic readings were immediately initiated and followed for 40 min, at 37 °C, in a microplate reader. The arbitrary chemiluminescence value was taken at the peak of the curve, and the results were expressed as the inhibition percentage of luminol oxidation.
GraphPad Prism 6 software was used to plot the curves of percentage of inhibition versus concentrations of compound, from which the concentration that produces 50% of inhibition (IC50) was determined. GraphPad Prism 6 software was also used to perform all statistical analyses. […] In all cases, p-values < 0.05 were considered statistically significant. The results are expressed as mean ± standard error of the mean (SEM).

human neutrophils = experiment: Annexin V/PI flow cytometric assay of neutrophils’ viability; format: cell-based; conditions: for Higher 2-SC concentration that did not affect human neutrophils’ viability: annexin V/PI assay, 40 min incubation at 37 °C
Source text: as §1
(§2) The effect of the studied 2-SC on neutrophils’ viability was assessed by flow cytometry, after simultaneous staining with FITC Annexin V and propidium iodide (PI) (Figure S1), as previously reported by our research group, with modifications. After isolation, neutrophils (1 × 10^6 cells/mL) were incubated with 2-SC (up to 100.00 μM) or DMSO for 40 min, at 37 °C, in a 48-well plate. At the end of incubation, the content of each well was transferred to conical microtubes and centrifuged at 400× g at 20 °C for 5 min. After discarding the supernatant, the neutrophils’ pellet was resuspended in PBS and centrifuged under the previous conditions. Once the supernatant was removed, the pellet was resuspended in 10× diluted binding buffer, and then PI and annexin V were added. This mixture was incubated in the dark at room temperature for 15 min, and finally, 10× diluted binding buffer was added. In a flow cytometer, the fluorescence signal, of at least 10,000 cells/sample, were collected in logarithmic mode and followed in channels 1 and 3. The green fluorescence corresponding to annexin V FITC was accompanied in channel 1 and plotted as a histogram of FL1 staining, whereas the fluorescence corresponding to PI was monitored in channel 3 and plotted in the same histogram but as FL3 staining. The collected data were analyzed with the BD Accuri™ C6 software. The data analysis was restricted to the neutrophils’ population. Thus, according to the light-scattering properties of neutrophils (in a forward versus side scatter plot), a polygon gate was drawn, where debris and other blood cells were excluded. The effect of 2-SC on neutrophils’ viability was expressed as a relative percentage of apoptotic and/or necrotic cells when compared to the control (without 2-SC).

[2] = as above; format: cell-based, human; conditions: human, isolated human neutrophils, pH 7.4; 75.00 μM; representative plot, Figure 4; read-out: Viable cells [annexin V (−)/PI (−)], lower left quadrant
Source text: as §1, §2

[3] = Homo sapiens, Neutrophil, read-out: Inhibitory activity (% ± SEM), neutrophils’ oxidative burst

Row | IC50 ([1]; Homo sapiens, Neutrophil) [nM] | Structure (SMILES) | Higher 2-SC concentration that did not affect human neutrophils’ viability (human neutrophils) [µM] | also measured
1 | – | O=c1cc(/C=C/c2ccccc2)oc2ccccc12 [A1] | 75.00 | inhibition at 75 µM [1, 3]: < 30%
2 | – | O=c1cc(/C=C/c2ccccc2)oc2cccc(O)c12 [A2] | 6.25 | –
3 | – | O=c1cc(/C=C/c2ccccc2)oc2cc(O)ccc12 [A3] | 75.00 | inhibition at 75 µM [1, 3]: 53 ± 4%; Effect on human neutrophils’ viability (human neutrophils; 75.00 μM): showed no effect on human neutrophils’ viability; viability at 40 min, 75 µM [2]: 84.3%
4 | – | COc1cccc2oc(/C=C/c3ccccc3)cc(=O)c12 [A5] | 6.25 | –
5 | – | O=c1cc(/C=C/c2cccc(O)c2)oc2ccccc12 [A6] | 100.00 | inhibition at 100 µM ([1]; Homo sapiens, Neutrophil, 100.00 µM (highest tested concentration), read-out: Inhibitory activity (% ± SEM), neutrophils’ oxidative burst): < 30%
6 | – | O=c1cc(/C=C/c2cccc(O)c2)oc2cccc(O)c12 [A7] | 6.25 | –
7 | – | O=c1cc(/C=C/c2ccccc2O)oc2cccc(O)c12 [A8] | 25.00 | inhibition at 25 µM [1, 3]: < 30%
8 | 7500 ± 400 | O=c1cc(/C=C/c2ccc(O)cc2)oc2ccccc12 [B1] | 25.00 | Effect on total neutrophils’ population percentage (human neutrophils; 50.00 μM): affected the total neutrophils’ population percentage
9 | 4100 ± 300 | O=c1cc(/C=C/c2ccc(O)cc2)oc2cc(O)ccc12 [B3] | 25.00 | –
10 | 3100 ± 300 | O=c1cc(/C=C/c2ccc(O)cc2)oc2cc(O)cc(O)c12 [B4] | 6.25 | –
11 | – | COc1cc(O)c2c(=O)cc(/C=C/c3ccc(O)cc3)oc2c1 [B5] | 6.25 | –
12 | 1000 ± 100 | O=c1cc(/C=C/c2ccc(O)c(O)c2)oc2ccccc12 [B6] | 12.50 | Times more active than B1 (oxidative burst) ([1]; comparison of IC50 values with B1): ~7.5 times
13 | – | O=c1cc(/C=C/c2ccc(O)c(O)c2)oc2cccc(O)c12 [B7] | 0.38 | Inhibitory activity (% ± SEM), neutrophils’ oxidative burst ([1]; 0.38 µM (highest tested concentration)): did not show an inhibitory effect; inhibition at 0.38 µM ([1]; Homo sapiens, Neutrophil, 0.38 µM (highest tested concentration), read-out: Inhibitory activity (% ± SEM), neutrophils’ oxidative burst): < 30%; Effect on human neutrophils’ viability (human neutrophils; 0.38 μM): no effect on the viability was observed
14 | 700 ± 100 | O=c1cc(/C=C/c2ccc(O)c(O)c2)oc2cc(O)ccc12 [B8] | 25.00 | –
15 | 800 ± 100 | O=c1cc(/C=C/c2ccc(O)c(O)c2)oc2cc(O)cc(O)c12 [B9] | 12.50 | –
16 | 1000 ± 100 | COc1ccc2c(=O)cc(/C=C/c3ccc(O)c(O)c3)oc2c1 [B10] | 6.25 | –
17 | 800 ± 100 | COc1cc(OC)c2c(=O)cc(/C=C/c3ccc(O)c(O)c3)oc2c1 [B11] | 12.50 | –
18 | 900 ± 300 | O=c1cc(/C=C/c2ccc(O)c(O)c2)oc2c(O)c(O)ccc12 [B12] | 12.50 | –
19 | 1000 ± 200 | COc1ccc2c(=O)cc(/C=C/c3ccc(O)c(O)c3)oc2c1OC [B13] | 12.50 | –

Row | IC50 ([1]; Homo sapiens, Neutrophil) [nM] | Structure (SMILES) | Higher 2-SC concentration that did not affect human neutrophils’ viability (human neutrophils) [µM] | also measured
20 | – | COc1ccc(/C=C/c2cc(=O)c3c(OC)cccc3o2)cc1OC [C3] | 50.00 | inhibition at 50 µM [1, 3]: 54 ± 4%
21 | 24200 ± 300 | COc1ccc2c(=O)cc(/C=C/c3ccc(OC)c(OC)c3)oc2c1 [C4] | 37.50 | Times less active than C8 (oxidative burst) [1]: about 14 times
22 | – | COc1cc(OC)c2c(=O)cc(/C=C/c3ccc(OC)c(OC)c3)oc2c1 [C5] | 75.00 | inhibition at 50 µM [1, 3]: 54 ± 2%
23 | 20000 ± 2000 | COc1ccc(/C=C/c2cc(=O)c3ccc(OC)c(OC)c3o2)cc1OC [C6] | 37.50 | Times less active than C8 (oxidative burst) [1]: ~17 times
24 | – | COc1ccc(/C=C/c2cc(=O)c3ccc(OCc4ccccc4)c(OCc4ccccc4)c3o2)cc1OC [C7] | 25.00 | inhibition at 25 µM [1, 3]: < 30%
25 | – | O=c1cc(/C=C/c2ccc(OCc3ccccc3)c(OCc3ccccc3)c2)oc2ccccc12 [D1] | 12.50 | –
26 | – | COc1cc(OC)c2c(=O)cc(/C=C/c3ccc(OCc4ccccc4)c(OCc4ccccc4)c3)oc2c1 [D2] | 12.50 | –
27 | – | COc1ccc2c(=O)cc(/C=C/c3ccc(OCc4ccccc4)c(OCc4ccccc4)c3)oc2c1OC [D3] | 12.50 | –
28 | – | Cc1ccc(/C=C/c2cc(=O)c3ccccc3o2)cc1 [E1] | 25.00 | –
29 | – | Cc1ccc(/C=C/c2cc(=O)c3c(O)cccc3o2)cc1 [E2] | 12.50 | –
30 | – | O=c1cc(/C=C/c2ccc([N+](=O)[O-])cc2)oc2cccc(O)c12 [F2] | 12.50 | –
31 | – | O=c1cc(/C=C/c2cccc(Cl)c2)oc2cccc(O)c12 [G1] | 12.50 | –
32 | – | O=c1cc(/C=C/c2ccc(Cl)c(Cl)c2)oc2cccc(O)c12 [G3] | 25.00 | inhibition at 25 µM [1, 3]: < 30%
33 | – | O=c1cc(/C=C/c2c(Cl)cccc2Cl)oc2cccc(O)c12 [G4] | 25.00 | inhibition at 25 µM [1, 3]: < 30%
34 | – | COc1ccc2c(=O)c(Br)c(/C=C/c3ccccc3)oc2c1 [H1] | 12.50 | –
35 | – | COc1cc(OC)c2c(=O)c(Br)c(/C=C/c3ccccc3)oc2c1 [H2] | 50.00 | inhibition at 50 µM [1, 3]: < 30%
36 | – | COc1ccc2c(=O)c(Br)c(/C=C/c3ccc(OC)c(OC)c3)oc2c1 [H3] | 12.50 | –
37 | 800 ± 100 | O=c1c(O)c(-c2ccc(O)c(O)c2)oc2cc(O)cc(O)c12 [Quercetin, quercetin, reference compound] | – | –
